This note sets out measurements from patent US20100240746A1, “STEREOISOMERS OF TRICYCLODECAN-9-YL-XANTHOGENATE” (LUMAVITA AG, priority 2007, published 2010).

For series [1], the system named is HPV-31 specific DNA. Briefly: Long-term study: HPV-31 specific DNA level (Southern blot). Format: cell-based, human papilloma virus. On the procedure:
(§1) HPV-31 infected cells (3×10^6) were dispensed into 14.5 cm dishes containing fresh E medium and 1×10^6 cells of mitomycin C-treated 3T3 fibroblast feeders. The dishes were incubated in a CO2 incubator under 5% CO2 at 37° C. in 100% humidity. Human A431 epithelial cancer cells were used as HPV-uninfected negative controls. After 6 hr incubation, the cell culture medium was removed and fresh E medium containing 0.85 g/L NaHCO3 and a test compound at concentrations of 10 and 3.3 μg/mL, or control (interferon γ at 200 IU/mL) were added. For each concentration, 4 dishes were prepared. The dishes were incubated at 37° C. in a CO2 incubator. The culture medium was replaced to new E medium containing each concentration of the test compound or control in every 72 hrs. After seven days, or when untreated cells became confluent, one dish of each group was harvested for DNA/RNA extraction, followed by Southern/Northern Blot analysis; and one dish was trypsinized, cell number were determined and cells were seeded in three new dishes, treated and cultured as described above. This procedure was repeated for 9 passages. During these passages, morphology of cells and cell density were monitored.
(§2) Effect on HPV-31 specific DNA and RNA: DNA and RNA were analyzed in Southern and Northern Blot gels for HPV-31 specific sequences. X-ray films were scanned and optical densities of HPV-31 specific DNA and major mRNA species were integrated. Time curves were established by plotting integrated values against number of passages for each treatment dose. The T50 (time required to reduce the level to 50% of control) was determined from the time curves from crossing points of time curves with a line parallel to the x-axis corresponding to 50% of integrals of untreated control sample.

The next series has as its system Calu-6 cells. Briefly: Cytotoxicity assay in Calu-6 cells (crystal violet). The series is classed as cell-based. The settings on record: 48 hr. How it is done:
Calu-6 cells and RITA cells were grown in DMEM cell culture medium containing 10% fetal calf serum in CO2 incubator under 5% CO2 at 37° C. with 100% humidity.
For cytotoxicity assay, Calu-6 cells were seeded in 96 well plates at a density of 3×10^6 cells per plate in the DMEM cell culture medium. The plates were incubated at 37° C. in the presence of 5% CO2 for 24 hr. The DMEM cell culture medium in the plates was exchanged with fresh DMEM cell culture medium containing test compounds at a series of concentrations. The plates were incubated at 37° C. in the presence of 5% CO2 for 48 hr. The plates were then washed with PBS, fixed with 3% formaldehyde solution containing 0.9% NaCl for 1 min, washed by water for 10 sec, and dried overnight. For detection, the plates were stained with crystal violet solution for 5 min at room temperature, washed 5 times with water, and dried at room temperature overnight. After adding ethanol/acetic acid (99:1, v/v, […]) to each well, the plates were measured at 595 nm using an ELISA reader. A dose response curve was obtained for each compound tested by plotting the mean values of the optical densities against compound concentration.

Series [2] relates to HPV-31 specific RNA. Briefly: Short-term study: HPV-31 specific RNA expression (Northern blot). The series is classed as cell-based, human papilloma virus. The settings on record: 72 hrs. How it is done:
(§3) Effect on HPV-31 specific DNA and RNA. HPV-31 infected cells (3×10^6) were dispensed into 14.5 cm dishes containing fresh E culture medium and 1×10^6 mitomycin C-treated J2 3T3 fibroblast feeders. After 6 hrs, fresh medium containing 0.85 g/L NaHCO3 and a test compound at a series of concentrations (0, 0.5, 1, 2, 4, 8, 16, and 32 μg/mL) were added. All samples were tested in duplicates at each concentration. After incubation at 37° C. for 72 hrs, the feeder cells were removed with 4 mM EDTA, and DNA and RNA was then isolated. The isolated DNA and RNA were analyzed in Southern and Northern Blot gels for HPV-31 specific sequences. Human A431 epithelial cancer cells were used as HPV-uninfected negative control. X-ray films were scanned and optical densities of HPV-31 specific DNA and major mRNA species were integrated.
(§4) Dose response curves were established by plotting integrated values against the concentrations of the test compound.

Series [3] relates to HPV-31 specific DNA. In words: Short-term study: HPV-31 specific DNA (Southern blot). The settings on record: at 32 μg/mL, 72 hrs. The series is classed as cell-based, human papilloma virus. On the procedure:
as §3, §4

Series [4] relates to HPV-31-infected CIN612 9E keratinocytes. In words: Long-term study: cell proliferation and morphology of CIN612 9E cells over 9 passages. Format: cell-based. On the procedure:
as §1
Effect on cell proliferation. Cell numbers in the dishes harvested were determined in a Neubauer hematocytometer. The multiplication factor was determined at every step of passage. The cell number of each culture at the end of the passage was divided by the number of seeded cells at the start of each passage. The end point was reached when keratinocytes treated with a test compound stopped growing. Stop of cell growth was defined as a multiplication factor of no greater than 1.

Series [5] has as its system HPV-31 specific RNA. Briefly: Long-term study: HPV-31 specific RNA level (Northern blot). The series is classed as cell-based, human papilloma virus. How it is done: as §1, §2
Series [6] addresses T1, phosphatidylcholine-specific phospholipase C (PC-PLC) (Bacillus cereus, UniProt P09598).
T1 construct: purchased Invitrogen
Briefly: Amplex Red phosphatidylcholine-specific phospholipase C (PC-PLC) inhibition assay. The series is classed as biochemical, B. cereus. The settings on record: 30 min at 37° C., triplicate. On the procedure:
The inhibitory activities of optically active potassium salts of (+)- and (−)-O-exo/C-exo-tricyclo [5.2.1.0^2,6]-dec-9-yl-xanthic acid 1A ((+)- and (−)-enantiomers 1A) against phosphatidylcholine-specific phospholipase C were evaluated, together with D609 and potassium salt of racemic O-exo/C-exo xanthic acid 1A (racemic 1A), using Amplex Red phosphatidylcholine-specific phospholipase C(PC-PLC) assay kit, which was obtained from Invitrogen (Calsbad, Calif.). D609 was obtained from Sigma Aldrich.
An Amplex Red stock solution (˜20 mM), a working reaction buffer, and a horseradish peroxidase stock solution (200 U/mL), a H2O2 working solution (20 mM), a choline oxidate stock solution (20 U/mL), an alkaline phosphatase stock solution (400 U/mL), and a B. cereus PC-PLC stock solution (10 U/mL) were prepared according to the instruction of the assay kit. The stock solution (100 mg/mL) for each test compound was also prepared by dissolving the compound in water 2 hr prior to the start of the experiment.
A working Amplex Red/HRP/lecithin solution was prepared by adding 200 μL of Amplex Red reagent stock solution, 100 μL of HRP stock solution, 200 μL of alkaline phosphatase stock solution, 100 μL of choline oxidase stock solution, and 78 μL of the lecithin solution to […] of the working reaction buffer. PC-PLC solution (0.2 U/mL) was prepared by diluting the PC-PLC stock solution with the working reaction buffer to the desired concentration.
The test compound (25 μL) at a serious of concentrations was pipetted into a 96 well plate. For uninhibited PC-PLC controls and non-PC-PLC controls, 25 μL of water was added. After the addition of 50 μL of the Amplex Red/HRP/lecithin working solution, the reaction was initiated by adding 25 μL of PC-PLC solution to each well. To the non-PC-PLC controls, 25 μL of water was added instead of PC-PLC solution. The experiment was performed in triplicate. The reactions were protected from light. After incubated for 30 min at 37° C., the reactions were measured with a fluorescence microplate reader using excitation at 550 nm and emission detection at 590 nm. The fluorescent data obtained were corrected for background fluorescence by subtracting the values obtained from the non-PC-PLC controls.

In series [7] the test system is HPV-31-infected CIN612 9E keratinocytes. In words: Short-term study: growth of HPV-31-infected CIN612 9E keratinocytes (crystal violet). The series is classed as cell-based. The settings on record: at 200 UI/mL, 72 hrs. How it is done: The inhibitory activities of optically active (−)-enantiomer 1A against human papilloma virus were evaluated using HPV-31-infected CIN612 9E keratinocytes (Meyers et al., Science 1992, 257, 971-973).
Effect on cell proliferation. HPV-31 infected cells were seeded in 96-well plates containing 1×10^6 mitomycin C treated 3T3 cells (1×10^4 cells/well), at a density of 0.5×10^6 cells per plate (0.5×10^4 cells/well) in E medium. After the plates were incubated in a CO2 incubator under 5% CO2 at 37° C. in 100% humidity for six hrs, the cell culture medium was removed and fresh E medium containing 0.85 g/L NaHCO3 and a test compound at a series of concentrations (0, 0.5, 1, 2, 4, 8, 16, 32, 64, and 128 μg/mL), or positive control (interferon γ at 200 IU/mL) was added. […] After the plates were dried on blotting paper upside down overnight, 0.1 mL of ethanol/acetic acid (99:1) was added to each well and optical density at 595 nm was determined in an ELISA reader.
Dose response curves were established by plotting growth against concentrations of the test compound or control. ICso values were determined from the dose response curves from crossing points of the dose response curves with a line parallel to the x-axis corresponding to 50% of uninhibited growth.

Setting [8] is: at 10 μg/mL, listed as (−)-enantiomer 1A.

≈ marks a conversion by molar mass, not a printed value.

T1 sequence (P09598 39-283 limits assumed): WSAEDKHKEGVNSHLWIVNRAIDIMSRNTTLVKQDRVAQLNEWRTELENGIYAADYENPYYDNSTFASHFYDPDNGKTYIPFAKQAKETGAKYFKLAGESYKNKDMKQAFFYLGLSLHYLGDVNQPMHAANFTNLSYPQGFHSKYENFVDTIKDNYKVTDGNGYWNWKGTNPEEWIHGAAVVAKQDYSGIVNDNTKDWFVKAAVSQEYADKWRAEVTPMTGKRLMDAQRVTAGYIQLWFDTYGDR

A word on the IC50: it is the point on the concentration scale where inhibition reaches its midpoint. `S=C(S)OC1CC2CC1C1CCCC21` (single isomer, unassigned; enantiomer 1a) [(−)-Enantiomer 1A, (−)-O-exo/C-exo-tricyclo[5.2.1.0^2,6]-dec-9-yl-xanthic acid 1A]: in the series on HPV-31 specific DNA [1] (10 μg/mL, after 6 passages), the “number of viral genomes per cell remaining” value is recorded as less than 5%. Besides, the “viral DNA remaining” value with HPV-31 specific DNA [1] (10 μg/mL, after 9 passages) is less than 1%. Also, the “reduction of the number of viral genomes per cell” value with HPV-31 specific DNA [1] (10 μg/mL, after a single passage) was “more than 50%”. The “T50 DNA” value in the series with HPV-31 specific DNA [1] (setting [8]) is less than 1 passages; in the series with HPV-31 specific DNA [1] (at 10 μg/mL, listed as Cmpd 1A), less than 1 passages. The molecule also displayed an LD50 in the series on Calu-6 cells of 94.32 ± 7.33 µg/mL. For the same molecule, in the series on HPV-31 specific RNA [2], the “IC50 on the inhibition of HPV-31 specific RNA expression” value worked out at 10.7 µg/mL. Further, in the series with HPV-31 specific DNA [3], the “inhibition of HPV-31 specific DNA” value is on record as 37.5%. The multiplication factor in series [4] (3.3 μg/mL, passage 1) was 2.9; in series [4] (3.3 μg/mL, passage 9), 1.1; in series [4] (10 μg/mL, from passage 7 on) it was less than 1; in series [4] (10 μg/mL, passage 5) it was 2.4; in series [4] (10 μg/mL, passage 6), 1.3; in series [4] (10 μg/mL, passage 9) it was 0.1. For the same molecule, in the series on HPV-31 specific RNA [5] (10 μg/mL, after 9 passages), the “viral RNA remaining” value is given as less than 1%. In addition, the “T50 RNA” value is listed as less than 1 passages in the series with HPV-31 specific RNA [5] (setting [8]) and less than 1 passages with HPV-31 specific RNA [5] (at 10 μg/mL, listed as Cmpd 1A). Besides, the half-maximal inhibitory concentration (IC50) in series [6] came to 3.62 ± 0.17 µg/mL (≈ 15.9 µM).

B1: INF-γ: interferon γ, positive control at 200 IU/mL (protein, UniProt P01579 24-161, looked up)
Interferon gamma: QDPYVKEAENLKKYFNAGHSDVADNGTLFLGILKNWKEESDRKIMQSQIVSFYFKLFKNFKDDQSIQKSVETIKEDMNVKFFNSNKKKRDDFEKLTNYSVTDLNVQRKAIHELIQVMAELSPAAKTGKRKRSQMLFRG
Take B1: the “T50 DNA” value with HPV-31 specific DNA [1] (at 200 IU/mL) is reported as 2.7 passages. Further, the multiplication factor in series [4] (200 IU/mL, first cell passage) is reported as 0.8; in series [4] (200 IU/mL, second passage), 2.4. For the same molecule, the “T50 RNA” value in the series with HPV-31 specific RNA [5] (at 200 IU/mL) worked out at 3.36 passages. In addition, in series [7], the “inhibition of the growth of HPV-31-infected CIN612 9E keratinocytes” value is given as “about 50%”.
